The values below come from PubChem BioAssay (NCI).

Some test systems named below: CCRF-CEM leukemia; HT29 colon; MALME-3M melanoma; MOLT-4 leukemia; NCI-H226 lung; SN12C renal; SNB-19 CNS; UACC-62 melanoma; UO-31 renal; T-47D breast.
Common to all, as to test: NCI anticancer screen, dose series, 48 h

The structures appear in SMILES notation. Several values for one entry are separate records, joined by “and”; a condition that tells them apart may be missing. Identical values can stand only once.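 Dose response: 5 concentrations. Exposure: 48 h. Format: 96-well plates. Endpoint: linear interpolation; highest concentration if not reached. GI50: concentration for 50% inhibition of growth. Definition used: TGI = concentration required for complete inhibition of growth.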

As for `C=C1C(=O)OC2C1CC1OC2C(C)CCC/C(C)=C\CCC1(C)O` (stereo not given), the TGI in the assay with CCRF-CEM leukemia was 22.2 µM; with HT29 colon, > 91.1 µM; in the assay on MALME-3M melanoma, 80.6 µM; in the assay on MOLT-4 leukemia, 21 µM; with NCI-H226 lung it was 51.3 µM; in the assay on SN12C renal, 62.5 µM. The TGI in the assay on SNB-19 CNS is 103 µM; in the assay with UACC-62 melanoma it was 26.4 µM; in the assay with UO-31 renal, 79.6 µM.

As for `CC1(C)CN=C(c2ccc3ccccc3c2O)N1`, the TGI in the assay on CCRF-CEM leukemia, in the assay with MOLT-4 leukemia, in the assay with SN12C renal, in the assay with SNB-19 CNS, with T-47D breast and in the assay with UACC-62 melanoma was > 100 µM throughout. Further, the TGI in the assay with UO-31 renal was > 100 µM.

With `CCCCC[C@@H]1OC(=O)[C@@]2(CC3c4ccccc4C2c2ccccc23)[C@H]1C(=O)OC`, the TGI with CCRF-CEM leukemia, in the assay with HT29 colon, in the assay with MALME-3M melanoma, in the assay on SN12C renal, with SNB-19 CNS and in the assay with UACC-62 melanoma was > 100 µM each time. For the same compound, the TGI in the assay on UO-31 renal was > 100 µM.

`C[N+](C)(C)c1nc(N)nc2c1ncn2C1OC(CO)C(O)C1O` (stereo not given): the TGI in the assay on CCRF-CEM leukemia, with HT29 colon, with MALME-3M melanoma, in the assay on MOLT-4 leukemia, in the assay on SN12C renal and in the assay on SNB-19 CNS was > 100 µM each time. The TGI in the assay on T-47D breast, with UACC-62 melanoma and with UO-31 renal was > 100 µM in each case.

`Cc1ccc(N=Nc2cc(=O)[nH]c(=O)[nH]2)cc1C`: the TGI is > 100 µM in the assay on CCRF-CEM leukemia; 4.51 µM in the assay on HT29 colon; 27.5 µM in the assay on MALME-3M melanoma; > 100 µM with MOLT-4 leukemia; 41.8 µM in the assay with NCI-H226 lung; 18.6 µM in the assay on SN12C renal. The TGI in the assay with SNB-19 CNS was found to be 35.2 µM; in the assay on UO-31 renal, 32.6 µM.

With `O=C(c1ccccc1)c1ccc2c(c1)N=C(c1ccc(Cl)c(Cl)c1)CC(c1ccc3ccccc3c1)N2` (stereo not given), the TGI in the assay on CCRF-CEM leukemia, with HT29 colon, with MOLT-4 leukemia, in the assay on NCI-H226 lung, in the assay with SN12C renal and with SNB-19 CNS was > 100 µM in each case. Besides, the TGI in the assay on UACC-62 melanoma and in the assay on UO-31 renal was > 100 µM throughout.

For the compound `COC(=O)[C@]12CCC(=O)N1[C@H](C(=O)O)Cc1c2[nH]c2ccccc12`, the TGI with CCRF-CEM leukemia, in the assay with HT29 colon, in the assay on MALME-3M melanoma, in the assay on MOLT-4 leukemia, with SN12C renal and in the assay on SNB-19 CNS was > 100 µM each time. Moreover, the TGI with T-47D breast, in the assay with UACC-62 melanoma and in the assay with UO-31 renal was > 100 µM throughout.

On to `O.O=[Se](=O)(O)O.[NH-]C1CCCCC1[NH-].[Pt+2]` (stereo not given), for which the GI50 in the assay on CCRF-CEM leukemia was 9.8 µM; in the assay on HT29 colon, 4.62 µM; in the assay on MALME-3M melanoma, 8.23 µM; in the assay on MOLT-4 leukemia, 2.79 µM; with NCI-H226 lung, 5.21 µM; with SN12C renal, 23.3 µM. Besides, the results for the GI50 in the assay with SNB-19 CNS, in the assay on UACC-62 melanoma and in the assay with UO-31 renal were > 50.7 µM, 4.25 µM and 7.66 µM, respectively. Besides, the TGI with CCRF-CEM leukemia is > 100 µM; with HT29 colon, > 100 µM; in the assay with MALME-3M melanoma it was 44 µM; with MOLT-4 leukemia, > 100 µM; in the assay with NCI-H226 lung, 25.7 µM; with SN12C renal, > 100 µM. Moreover, the TGI is > 100 µM in the assay on SNB-19 CNS, 26.4 µM in the assay on UACC-62 melanoma and > 68 µM in the assay with UO-31 renal.

Regarding `CC(C)=CCC/C(C)=C/CCC1(C)C2COC(=O)C21` (stereo not given), the TGI with CCRF-CEM leukemia is 80.8 µM; in the assay with HT29 colon, > 100 µM; in the assay with MALME-3M melanoma, > 100 µM; in the assay with MOLT-4 leukemia it was > 100 µM; with NCI-H226 lung it was > 100 µM; with SN12C renal it was > 100 µM. The TGI in the assay on SNB-19 CNS, in the assay with UACC-62 melanoma and with UO-31 renal was > 100 µM in each case.

In the case of `CC1Oc2c(c(O)cc3oc(=O)cc(-c4ccccc4)c23)C(=O)C1C` (stereo not given), the TGI in the assay on CCRF-CEM leukemia, in the assay on MALME-3M melanoma, with MOLT-4 leukemia, in the assay on NCI-H226 lung, with SN12C renal and with UACC-62 melanoma was > 100 µM in each case. The TGI with UO-31 renal is > 100 µM.

`O=C(O)C1(Cc2ccc3c(c2)CCC3)Cc2cc3c(cc2C1)CCC3`: the TGI in the assay with CCRF-CEM leukemia, with HT29 colon, in the assay with MALME-3M melanoma, in the assay with MOLT-4 leukemia, with NCI-H226 lung and in the assay with SNB-19 CNS was > 100 µM throughout. Besides, the TGI with UACC-62 melanoma and in the assay on UO-31 renal was > 100 µM each time.

As for `NCCCN1CCN(CCCNc2ccc3ncn4c5ccccc5c(=O)c2c34)CC1`, the TGI in the assay with CCRF-CEM leukemia is > 25 µM; with HT29 colon it was 6.7 µM; with MALME-3M melanoma it was 6.27 µM; in the assay with MOLT-4 leukemia, > 25 µM; in the assay on SN12C renal, 3.68 µM; in the assay on SNB-19 CNS, 4.46 µM. For the same compound, the TGI with T-47D breast stood at 12.1 µM; in the assay on UACC-62 melanoma it was 6.18 µM; in the assay on UO-31 renal it was 22.5 µM.

For `COC(=O)C1CC(C=O)=C(SC)N1` (stereo not given), the TGI with HT29 colon, with MALME-3M melanoma, with MOLT-4 leukemia, in the assay on SNB-19 CNS, in the assay on UACC-62 melanoma and in the assay on UO-31 renal was > 50 µM throughout.

As for `O=c1oc2ccccc2cc1-c1nc2ccccc2s1`, the TGI was 25.8 µM in the assay with HT29 colon; 9.2 µM with MALME-3M melanoma; 33 µM with NCI-H226 lung; > 50.7 µM in the assay on SN12C renal; 17.6 µM in the assay on UO-31 renal.

As for `C=C(Cl)C(=C)CCC(Cl)C(C)(C)Cl` (stereo not given), the TGI with CCRF-CEM leukemia, in the assay on HT29 colon, in the assay with MALME-3M melanoma, in the assay on MOLT-4 leukemia, in the assay on NCI-H226 lung and in the assay with SN12C renal was > 100 µM throughout. Besides, the TGI in the assay on SNB-19 CNS, in the assay with UACC-62 melanoma and in the assay on UO-31 renal was > 100 µM each time.

`N#Cc1nc(Cc2cccs2)oc1N`: the TGI with CCRF-CEM leukemia, in the assay with HT29 colon, with MOLT-4 leukemia, in the assay with SN12C renal, in the assay on SNB-19 CNS and in the assay with UACC-62 melanoma was > 100 µM throughout. Besides, the TGI in the assay with UO-31 renal was > 100 µM.

`COc1cccc2c1C(=O)c1c(O)c3c(c(O)c1C2=O)C[C@](O)(C(=O)CO)CC3OC1CC(N)C(OC2CCCCO2)C(C)O1` (stereo not given in full): the TGI stood at 4.52 µM in the assay on HT29 colon; 0.705 µM in the assay with MALME-3M melanoma; 0.0342 µM in the assay on MOLT-4 leukemia; 0.434 µM in the assay with NCI-H226 lung; 3.12 µM in the assay on SN12C renal; 4.16 µM with SNB-19 CNS. For the same compound, the TGI in the assay with UACC-62 melanoma was 1.11 µM; in the assay with UO-31 renal it was 3.63 µM.

`Cc1ccc(Oc2cc(C)ccc2P(=O)(O)O)cc1`: the TGI in the assay on CCRF-CEM leukemia, in the assay with MOLT-4 leukemia, in the assay with NCI-H226 lung, in the assay on SN12C renal, in the assay on SNB-19 CNS and with UACC-62 melanoma was > 100 µM in each case. Further, in the assay with UO-31 renal, the TGI was > 100 µM.

As to `COc1ccc(/C(Cl)=C(\C=O)c2ccc(Cl)cc2)cc1`, the TGI in the assay with CCRF-CEM leukemia was 11.4 µM; in the assay on HT29 colon it was 15.6 µM; in the assay on MALME-3M melanoma it was > 100 µM; in the assay with MOLT-4 leukemia, 7.81 µM; in the assay with NCI-H226 lung, 48.1 µM; in the assay with SN12C renal, 13.6 µM. Besides, the TGI in the assay with SNB-19 CNS was found to be 87.4 µM; in the assay with UACC-62 melanoma it was 32.8 µM; in the assay with UO-31 renal, 33.1 µM.

Consider `Brc1ccc2[nH]cc(-c3nc(-c4c[nH]c5ccncc45)cs3)c2c1`, for which the GI50 with CCRF-CEM leukemia is 2.24 µM; in the assay on MALME-3M melanoma, 2.14 µM; in the assay on SN12C renal, 1.79 µM; in the assay on UO-31 renal it was 1.47 µM. For the same compound, the TGI in the assay on CCRF-CEM leukemia worked out at 5.14 µM; with MALME-3M melanoma, 3.72 µM; with SN12C renal, 3.32 µM; in the assay on UO-31 renal it was 2.8 µM.

`O=C1/C(=C/c2ccc(Cl)c(Cl)c2)CN(C(=O)CCN2CCOCC2)C/C1=C\c1ccc(Cl)c(Cl)c1`: the GI50 in the assay with MOLT-4 leukemia is 0.196 µM; with UACC-62 melanoma, 1.92 µM. In addition, the TGI was 4.55 µM and 4.15 µM in the assay with NCI-H226 lung; 3.27 µM and 4.9 µM with UACC-62 melanoma.

Turning to `CCC[CH2][Ge]([CH2]CCC)([CH2]CCC)[O]C(=O)CCl`, the GI50 in the assay with CCRF-CEM leukemia is 0.406 µM; with HT29 colon, 0.628 µM; in the assay with MALME-3M melanoma, 1.14 µM; with MOLT-4 leukemia, 0.856 µM; with NCI-H226 lung it was 14.1 µM; in the assay on SN12C renal it was 1.46 µM. For the same compound, the GI50 was 10.8 µM in the assay on SNB-19 CNS, 1.07 µM in the assay on UACC-62 melanoma and 2.28 µM with UO-31 renal. Moreover, the TGI with CCRF-CEM leukemia is 17.9 µM; with HT29 colon, 11.5 µM; in the assay with MALME-3M melanoma it was 12.5 µM; with MOLT-4 leukemia, 29.9 µM; with NCI-H226 lung, 31.5 µM; with SN12C renal it was 19.3 µM. Also, the TGI in the assay with SNB-19 CNS came out at 22.9 µM; in the assay with UACC-62 melanoma, 8.67 µM; in the assay with UO-31 renal it was 15.6 µM.

As for `CC(=O)Nc1oc(C)nc1C#N`, the TGI in the assay on CCRF-CEM leukemia, in the assay with HT29 colon, in the assay with MOLT-4 leukemia, in the assay with SN12C renal, in the assay with SNB-19 CNS and in the assay with UACC-62 melanoma was > 100 µM each time.
